Earlier results, collected in patent US20220288147A1, “GINSENG COMPOSITION AND USE THEREOF AS A MEDICAMENT” (BOTALYS SA, priority 2019, published 2022).

Settings: oral

Structure (SMILES)	Absorption rates of an orally administered dose
CC(C)=CCC[C@](C)(O)[C@H]1CC[C@]2(C)[C@@H]1[C@H](O)C[C@@H]1[C@@]3(C)CC[C@H](O)C(C)(C)[C@@H]3[C@@H](O[C@@H]3O[C@H](CO)[C@@H](O)[C@H](O)[C@H]3O[C@@H]3O[C@@H](C)[C@H](O)[C@@H](O)[C@H]3O)C[C@]12C [Rg2]	≥ 1.9%
CC(C)=CCC[C@](C)(O[C@@H]1O[C@H](CO)[C@@H](O)[C@H](O)[C@H]1O)[C@H]1CC[C@]2(C)[C@@H]1[C@H](O)C[C@@H]1[C@@]3(C)CC[C@H](O)C(C)(C)[C@@H]3[C@@H](O[C@@H]3O[C@H](CO)[C@@H](O)[C@H](O)[C@H]3O)C[C@]12C [Rg1]	≥ 0.1%
